Test results reported in ChEMBL document CHEMBL1153692, “Inactivation of HIV-1 protease by a tripeptidyl epoxide” (Bioorg Med Chem Lett, 1992).

Tests used:
[1] = biological target: Human immunodeficiency virus type 1 protease (Human immunodeficiency virus 1) (UniProt Q72874); assay: Maximal inactivation rate of compound on protease of Human immunodeficiency virus-1 (HIV-I) was determined
[2] = biological target: Human immunodeficiency virus type 1 protease (Human immunodeficiency virus 1) (UniProt Q72874); assay: Concentration of compound for half maximal inactivation rate on protease of Human immunodeficiency virus-1 (HIV-I) was determined
[3] = biological target: Human immunodeficiency virus type 1 protease (Human immunodeficiency virus 1) (UniProt Q72874); assay: Half maximal inactivation rate of compound on HIV protease
[4] = biological target: Human immunodeficiency virus type 1 protease (Human immunodeficiency virus 1) (UniProt Q72874); assay: Maximal inactivation rate of compound on HIV protease

CC(C)C[C@@H]1O[C@@H]1[C@H](Cc1ccccc1)NC(=O)C(C)NC(Cc1ccccc1)C(=O)C(=O)OCc1ccccc1 (some centres undefined)
K [1]: 0.31 min⁻¹
K [2]: 20 µM

O=[N+]([O-])c1ccc(OCC2CO2)cc1 (centres undefined)
K [3]: 11 mM
K [4]: 0.004 min⁻¹
